Here are results for three molecules from patent publication US4866063A, “Diol metabolites of 7-phenyl-1,2,4-triazolo[2,3-c]pyrimidines-5-amines” (priority 1988, dated 1989).

“Also recorded” adds a separate entry of the source. Like-named read-outs stand apart in the source and are kept apart here.

The conditions of data set [1]: cited from earlier work.
Data set [2] is described as follows: Cardiotoxicity of compounds I and II in rats.
For data set [3] the following is noted: rat, in vivo.
The nature of data set [4]: Metabolism of compound II in man. Format: in vivo.
Data set [5] in a line: Metabolism of compound II in the rat. Format: in vivo.
The next data set has as its system heart or adrenal gland. Briefly: Cardiotoxicity study of compound III in rats (gross and histologic examination, mortality). Format: in vivo, female Charles River CD rats. The following applies: conclusion of the study. As for the experimental part: (§1) Compound III was administered by gavage at 40 mg/kg, 80 mg/kg, 160 mg/kg and 320 mg/kg to female Charles River CD rats (10/dosage) once daily for three days. One additional group of rats received vehicle for three days to serve as controls. […] Additional groups of rats (3/dosage) were sacrificed two hours after dosing on day 1, blood collected, and samples analyzed to determine plasma concentrations of compound III.

The nature of data set [6]: Bioavailability compared with precursor compounds. Type of data set: in vivo. The following applies: vs compounds I and II.
A short description of data set [7]: Water solubility compared with precursor compounds. Format: physicochemical. The following applies: vs compounds I and II.
Data set [8] can be described thus: Plasma concentrations of compound III two hours after dosing on day 1. Format: in vivo, female Charles River CD rats. The following applies: for concentration at 2 h: rat, plasma, po, gavage, two hours after dosing on day 1. As for the experimental part: as §1

For `CCOCCc1c(-c2ccccc2)nc(N)n2ncnc12` [compound I, 8-(2-ethoxyethyl)-7-phenyl-1,2,4-triazolo[2,3-c]pyrimidine-5-amine], in data set [1] (acute, mammals), the Glomerular filtration rate entry is on record as “increases” and the Renal blood flow result is listed as “increases”. In data set [1] (chronic oral dosing), the Glomerular filtration rate entry was “significant increases”, the Renal blood flow result was “significant increases” and the Sodium excretion result is on record as “significant increases”. Besides, in data set [2], the Cardiotoxicity result is “cardiotoxicity seen”. Besides, the “Myocardial lesions and associated changes” value in data set [3] was “myocardial lesions and associated changes found in rats”.
In the case of `Nc1nc(-c2ccccc2)c(CCO)c2ncnn12` [compound II, 8-(2-hydroxyethyl)-7-phenyl 1,2,4-triazolo[2,3-c]pyrimidine-5-amine], the “Aliphatic hydroxylation (similar metabolism)” value in data set [4] is given as “not seen in man”. In addition, the Cardiotoxicity result in data set [2] is reported as “cardiotoxicity seen”. Besides, the “Myocardial lesions and associated changes” value in data set [3] is “myocardial lesions and associated changes found in rats”. For the same molecule, the “Aliphatic hydroxylation (metabolism)” value in data set [5] is given as “undergoes aliphatic hydroxylation in the rat”.
Take `Nc1nc(-c2ccccc2)c(C(O)CO)c2ncnn12` (stereo not shown) [compound III, 8-(1,2-dihydroxyethyl)-7-phenyl-1,2,4-triazolo[2,3-c]pyrimidine-5-amine]: in the data set on heart or adrenal gland, the Cardiotoxicity entry is “does not appear to be cardiotoxic; also recorded: no incidence of cardiotoxic side effects in rats”. For the same molecule, in data set [6], the “Bioavailability relative to either precursor compound” value was “more bioavailable”. The “Water solubility relative to either precursor compound” value in data set [7] is reported as “more water soluble”. The “Plasma concentrations relative to those expected at cardiotoxic dosages of compounds I and II” value in data set [8] (40-320 mg/kg) is “well in excess of the concentrations that one might expect to see at cardiotoxic dosages of compounds I and II”. Besides, the concentration at 2 h was found to be 13800 ng/mL in [8] (40 mg/kg), 19800 ng/mL in data set [8] (80 mg/kg), 36700 ng/mL in data set [8] (160 mg/kg) and 47000 ng/mL in [8] (320 mg/kg).
